We go through four compounds from paper PMC11211329, “Phage-encoded bismuth bicycles enable instant access to targeted bioactive peptides” (Communications Chemistry, 2024).

Several values for one entry are separate records, joined by “and”; a condition that tells them apart may be missing. Identical values can stand only once. Like-named read-outs stand apart in the source and are kept apart here. Peptide text beside a SMILES is read from it.

This experiment has as its target T1, streptavidin (Streptomyces avidinii, UniProt P22629).
T1 construct: purchased New England Biolabs
The experiment is described as follows: biochemical. It is filed as binding. The procedure: SPR measurements were performed with 20 mM HEPES–KOH pH 7.4, 150 mM NaCl, 0.5 mM TCEP, 0.05% (v/v) polysorbate 20 as running buffer. For each experiment, 100–150 μg streptavidin in 10 mM sodium acetate pH 3.9 buffer was freshly immobilised on a sensor chip flow-cell using EDC/NHS chemistry at 25 °C in absence of TCEP. All binding experiments were conducted at 20 °C in single-cycle kinetics mode (Fig. 4, Supplementary Figs. 17, 18, Supplementary Data 2).
SPR experiments were performed on a Biacore 8K (Cytiva, USA) using a CM5 chip (Cytiva, 29104988, USA), onto which streptavidin (New England Biolabs, USA) was freshly immobilised using an amine coupling kit (Cytiva, USA) for each individual experiment. The instrument was operated using Biacore Insight 5 software (Cytiva, USA). The data were plotted and analysed in GraphPad Prism 10 (Dotmatics, USA) using the non-linear fit ‘one site – specific binding’ (Supplementary Equation 2). KD values of duplicate measurements are represented as the mean value ± standard deviation.
Supplementary Equation 2.
X = analyte concentration [µM]
RUmax = maximum response [RU]
KD = dissociation constant [µM]

T1 sequence (P22629 25-183): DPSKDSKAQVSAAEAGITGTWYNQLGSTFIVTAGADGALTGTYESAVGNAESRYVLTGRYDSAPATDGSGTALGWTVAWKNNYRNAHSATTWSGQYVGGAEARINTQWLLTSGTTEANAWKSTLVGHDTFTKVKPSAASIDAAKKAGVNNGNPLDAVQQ

In turn, `C[C@H](N)C(=O)N[C@@H](CS)C(=O)N[C@@H](Cc1c[nH]cn1)C(=O)N1CCC[C@H]1C(=O)N[C@@H](CCC(N)=O)C(=O)N[C@@H](CC(N)=O)C(=O)N[C@@H](CS)C(=O)N[C@H](C(=O)N[C@@H](CCC(=O)O)C(=O)N1CCC[C@H]1C(=O)N[C@@H](C)C(=O)N[C@@H](CS)C(N)=O)[C@@H](C)O` [compound 3] (H-ACHPQNCTEPAC-NH2) gave a Kd of 927 µM. In addition, the “affinity of linear versus bicyclic peptide (in words)” value (SPR) was “two orders of magnitude lower affinity”. For the same compound, the Response (SPR, 11.7188 μM peptide) was found to be 4.8115 RU. The Response (SPR, 23.4375 μM peptide) amounted to 6.9877 RU. The Response (SPR, 46.875 μM peptide) stood at 10.9154 RU. Also, the Response (SPR, 93.75 μM peptide) amounted to 18.7272 RU. For the same compound, the Response (SPR, 187.5 μM peptide) was 34.0455 RU. This compound also registered a Response (SPR, 375 μM peptide) of 61.2377 RU. Under “SPR, 750 μM peptide”, the Response is recorded as 109.838 RU. Also, the Response (SPR, 1500 μM peptide) came out at 163.522 RU. Besides, the Response (SPR, 3000 μM peptide) amounted to 172.646 RU.
The compound `CC(C)[C@@H]1NC(=O)[C@H](CCC(N)=O)NC(=O)[C@@H]2CCCN2C(=O)[C@H](Cc2c[nH]cn2)NC(=O)[C@@H](NC(=O)[C@H](C)N)CS[As]2SC[C@@H](C(N)=O)NC(=O)[C@H](CCC(=O)O)NC(=O)[C@H]([C@@H](C)O)NC(=O)[C@@H]3CCCN3C(=O)[C@H](CO)NC(=O)[C@H](CS2)NC1=O` [4a] had a Kd of 42.8 ± 3.5 µM. Also, for the setting “SPR”, the “affinity towards streptavidin (in words)” value is listed as “micromolar affinity”. Further, the Response (SPR, 0.390625 μM peptide) was 3.3313 RU and 3.9342 RU. Moreover, for the setting “SPR, 0.78125 μM peptide”, the Response is 3.4046 RU and 4.4109 RU. Further, the Response (SPR, 1.5625 μM peptide) was 4.0632 RU and 5.3459 RU. Besides, the Response (SPR, 3.125 μM peptide) was 6.3333 RU and 7.9821 RU. For the same compound, the Response (SPR, 6.25 μM peptide) was 11.621 RU and 13.3151 RU. Also, under “SPR, 12.5 μM peptide”, the Response was 22.2246 RU and 23.8712 RU. Besides, the Response (SPR, 25 μM peptide) was 39.0098 RU and 40.7076 RU. For the same compound, the Response (SPR, 50 μM peptide) is 57.9196 RU and 59.6228 RU. Besides, where the note is “SPR, 100 μM peptide”, the Response was 73.3509 RU and 75.0552 RU.
`C[C@H](N)C(=O)N[C@H]1C[S][Bi]2[S]C[C@@H](C(N)=O)NC(=O)[C@H](C)NC(=O)[C@@H]3CCCN3C(=O)[C@H](CCC(=O)O)NC(=O)[C@H]([C@@H](C)O)NC(=O)[C@H](C[S]2)NC(=O)[C@H](CC(N)=O)NC(=O)[C@H](CCC(N)=O)NC(=O)[C@@H]2CCCN2C(=O)[C@H](Cc2c[nH]cn2)NC1=O` [3b]: the “affinity towards streptavidin (in words)” value (SPR) is reported as “two-digit micromolar dissociation constants”. Further, the Response was found to be 7.812 RU (SPR, 0.78125 μM peptide); 10.9116 RU (SPR, 1.5625 μM peptide); 21.8994 RU (SPR, 3.125 μM peptide); 58.4112 RU (SPR, 6.25 μM peptide); 130.364 RU (SPR, 12.5 μM peptide); 206.319 RU (SPR, 25 μM peptide). For the same compound, the Response is, setting by setting: (SPR, 50 μM peptide) 242.538 RU; (SPR, 100 μM peptide) 254.246 RU; (SPR, 200 μM peptide) 258.218 RU.
On to `C[C@H](N)C(=O)N[C@H]1C[S][Bi]2[S]C[C@@H](C(N)=O)NC(=O)[C@H](C)NC(=O)[C@H](C)NC(=O)[C@H](C)NC(=O)[C@H](CCC(=O)O)NC(=O)[C@H](C[S]2)NC(=O)[C@H](CCC(N)=O)NC(=O)[C@@H]2CCCN2C(=O)[C@H](Cc2c[nH]cn2)NC(=O)[C@@H]2CCCN2C1=O` [2b], for which, under “SPR”, the “affinity towards streptavidin (in words)” value is reported as “micromolar affinity”. The Response by setting is: (SPR, 0.390625 μM peptide) 13.0345 RU and 9.7931 RU; (SPR, 0.78125 μM peptide) 13.307 RU and 10.0327 RU; (SPR, 1.5625 μM peptide) 13.7466 RU and 10.2315 RU; (SPR, 3.125 μM peptide) 15.583 RU and 11.4763 RU; (SPR, 6.25 μM peptide) 24.2151 RU and 19.0135 RU; (SPR, 12.5 μM peptide) 41.2334 RU and 33.5268 RU. Also, the Response reads like this: (SPR, 25 μM peptide) 50.6436 RU and 38.7895 RU; (SPR, 50 μM peptide) 52.9652 RU and 37.872 RU; (SPR, 100 μM peptide) 63.2365 RU and 47.0629 RU. In addition, binding (SPR, 20 °C, single-cycle kinetics, 1b, 2b, 3a, 4a n = 2 (mean ± SD), 2, 3, 3b, 4b n = 1) was put at a Kd of 7.4 µM. For the same compound, for the setting “ratio of KD, bicycle vs linear peptide”, the “more active than linear counterpart” value is reported as “approximately 200 times”.
